pEC50, pIC50: −log10 of the molar value. Read-outs that look alike come from different tables or passages of the source.
Legend:
[1] = molecular target: T1, AKRON AgAChE (G119S AChE mutation) (Anopheles gambiae, UniProt Q869C3, G280S); assay: AChE inhibition, Ellman assay; type: biochemical
T1 construct: Homogenate enzymes were prepared from groups of ten non-blood fed adult female mosquitoes; from tissue; host or cells: whole adult female mosquitoes, AKRON strain, supernatant of homogenate
Description: (§1) In vitro biochemical assays utilized five acetylcholinesterase (AChE) enzymes. Recombinant human AChE (hAChE) was purchased from a commercial source (lyophilized powder, Sigma C1682, St. Louis, MO, USA). Homogenates to prepare Anopheles gambiae AChE (AgAChE) were obtained from the wild type G3 strain and the resistant AKRON strain (BEI Resources; http://www.beiresources.org/). AKRON mosquitoes (from Benin and donated by M. Akogbeto) have both knockdown resistance (kdr) to pyrethroids (L1014F sodium channel mutation) and the G119S AChE mutation (ace-1R), which confers resistance to carbamates, [15]. Both strains were cultured in the Emerging Pathogens Institute, University of Florida, Gainesville, FL, USA from eggs provided by the Center for Disease Control, Atlanta, GA, USA. Homogenates were also used to prepare Aedes aegypti AChE (AeAChE) from mosquitoes provided by the CMAVE, USDA-ARS, Gainesville, FL, USA; Musca domestica AChE (MdAChE) from flies cultured in the Department of Entomology and Nematology, Medical Entomology Laboratory, University of Florida, Gainesville, FL, USA); and Drosophila melanogaster AChE (DmAChE) from flies (Oregon-R strain) cultured in the Emerging Pathogens Institute, University of Florida, Gainesville, FL, USA. Homogenate enzymes were prepared from groups of ten non-blood fed adult female mosquitoes, five whole bodied Drosophila, or three Musca heads homogenized in 1 mL of ice-cold sodium phosphate buffer (0.1 M sodium phosphate, pH 7.8) with an electric motor driven glass tissue homogenizer. The homogenate was centrifuged at 5000×g using a Sorvall Fresco refrigerated centrifuge at 4 °C for 5 minutes. The supernatant was used as the enzyme source, and all enzyme preparations contained 0.3% (v/v) triton X-100 and 1 mg/ml BSA. Prior to use, the recombinant human enzyme was diluted 500-fold into sodium phosphate buffer containing triton X-100 and 1 mg/ml BSA.
(§2) Inhibition of AChE was determined using the Ellman assay and was based on the method outlined in Carlier et al.. Briefly, enzyme solution (10 µL) was added to each well of a 96-well micro assay plate, along with 20 µL of inhibitor in DMSO/saline suspension, and 150 µL of sodium phosphate buffer. Final concentration of DMSO was 0.1% in all incubations. The plate was incubated at 25 °C for ten minutes. Ellman assay reagents, acetylthiocholine iodide (0.4 mM, final concentration) and 5,5′-dithiobis-(2-nitro)benzoic acid (0.3 mM, final concentration), were prepared fresh and 20 µL was added to the enzyme to initiate the reaction. Changes in absorbance were recorded by a DYNEX Triad spectrophotometer (DYNEX Technologies, Chantilly, VA, USA) at 405 nm. Enzyme concentrations used were within the linear range, therefore eliminating the need for protein quantification.

[2] = molecular target: T2, Recombinant human AChE (hAChE) (Homo sapiens, UniProt P22303); assay: AChE inhibition, Ellman assay; type: biochemical; settings: mean, n = 3; read-out: IC50 (95% CI)
T2 construct: purchased Sigma C1682
Description: as §1, §2

[3] = molecular target: Musca domestica AChE (MdAChE) (Musca domestica, UniProt Q7YWJ9); assay: AChE inhibition, Ellman assay; type: biochemical; settings: mean, n = 3; read-out: IC50 (95% CI)
Description: as §1, §2

[4] = system: housefly larval central nervous system; assay: Neurophysiological recordings of CNS nerve discharge in housefly larvae; settings: Musca domestica; transected CNS; value (95% CI); read-out: EC50, excitation of nerve firing
acetylcholinesterase = assay: AChE inhibition, Ellman assay, summary statements across enzymes; type: biochemical; settings: concentrations up to 10 mM, all enzyme preparations
Description: as §1, with “The supernatant was used as the enzyme source, and all enzyme preparations contained 0.3% (v/v) triton X-100 and 1 mg/ml BSA. Prior to use, the recombinant human enzyme was diluted 500-fold into sodium phosphate buffer containing triton X-100 and 1 mg/ml BSA.” left out
Inhibition of AChE was determined using the Ellman assay and was based on the method outlined in Carlier et al.. […] Changes in absorbance were recorded by a DYNEX Triad spectrophotometer (DYNEX Technologies, Chantilly, VA, USA) at 405 nm. Enzyme concentrations used were within the linear range, therefore eliminating the need for protein quantification.

[5] = molecular target: T3, Aedes aegypti AChE (AeAChE) (Aedes aegypti, UniProt Q6A2E2); assay: AChE inhibition, Ellman assay; type: biochemical
T3 construct: Homogenate enzymes were prepared from groups of ten non-blood fed adult female mosquitoes; from tissue; host or cells: whole adult female mosquitoes, supernatant of homogenate
Description: as §1
as §2, with “reaction.” for “reaction. Changes in absorbance were recorded by a DYNEX Triad spectrophotometer (DYNEX Technologies, Chantilly, VA, USA) at 405 nm. Enzyme concentrations used were within the linear range, therefore eliminating the need for protein quantification.”

[6] = molecular target: T4, Drosophila melanogaster AChE (DmAChE) (Drosophila melanogaster, UniProt P07140); assay: AChE inhibition, Ellman assay; type: biochemical; settings: mean, n = 3; read-out: IC50 (95% CI)
T4 construct: five whole bodied Drosophila, or three Musca heads homogenized; from tissue; host or cells: whole Drosophila (Oregon-R), supernatant of homogenate
Description: as §1
as §2, with “reaction.” for “reaction. Changes in absorbance were recorded by a DYNEX Triad spectrophotometer (DYNEX Technologies, Chantilly, VA, USA) at 405 nm. Enzyme concentrations used were within the linear range, therefore eliminating the need for protein quantification.”

[7] = molecular target: T5, Anopheles gambiae AChE (AgAChE), wild type G3 strain (Anopheles gambiae, UniProt Q869C3); assay: AChE inhibition, Ellman assay; type: biochemical
T5 construct: Homogenate enzymes were prepared from groups of ten non-blood fed adult female mosquitoes; from tissue; host or cells: whole adult female mosquitoes, G3 strain, supernatant of homogenate
Description: as §1
as §2, with “reaction.” for “reaction. Changes in absorbance were recorded by a DYNEX Triad spectrophotometer (DYNEX Technologies, Chantilly, VA, USA) at 405 nm. Enzyme concentrations used were within the linear range, therefore eliminating the need for protein quantification.”

rat Nav 1.4 channel = system: rat Nav 1.4 channel; parameters: method as in ref 12 = [12]; 12 Scior T , Martinez-Morales E , Cruz S , Salinas-Stefanon E ( 2009 ) In silico modeling of toluene binding site in the pore of voltage-gate sodium channel . J Receptor Ligand Channel Res 2 : 1 – 9 .; settings: in vitro ref 12; cited from earlier work
[8] = system: neuromuscular junction of third instar Musca domestica larvae; assay: Neuromuscular junction recordings of evoked EPSP in housefly larvae; settings: toluene at 5 mM
Description: Neuromuscular recordings of the evoked excitatory postsynaptic potential (EPSP) were performed on third instar housefly larvae, essentially as described previously. In short, the maggot was immobilized with pins, and the nervous and musculature systems were exposed. The preparation was then bathed in saline containing: 140 mM NaCl, 0.75 mM CaCl2, 5 mM KCl, 4 mM MgCl2, 5 mM NaHCO3, and 5 mM HEPES (pH = 7.25). The nerves were severed from the base of the CNS, which was removed, and a lateral nerve trunk innervating the longitudinal muscles was drawn into a suction electrode filled with saline. Stimuli were applied at 1 volt and of 0.2 sec duration to elicit a contraction from the longitudinal muscles. The stimulated muscle was then impaled with a recording glass capillary microelectrode filled with 1 M KCl to record effects on the evoked EPSP and membrane potential. Signals from all recordings were amplified and digitized with the use of the MacLab. Chemicals were applied to the preparation directly by hand pipetting 150 µL of solution into the bath volume of 150 µL.

firefly light organ = assay: In vivo assay for effects on firefly light organ; parameters: species or system Photinus pyralis
Description: Adult firefly beetles (Photinus sp.) were collected locally (Nashville, TN) and housed in well-ventilated chambers with tree leaves. The animals had free access to 10% sucrose solution. Chemicals were dissolved in absolute ethanol and 1 µL was topically applied directly to the ventral light organ with the use of a manual pipettor. Prior to DEET application, the beetles were immobilized with molten parafilm and were mounted on corrugated cardboard for the duration of the study. Due to the time required for bioactivation of CDM, insects were treated with 1 µL of CDM and were released back into the holding chamber for three hours. After three hours, they were mounted in the previously described manner and monitored for activation of the lantern. Photographs were captured with a handheld camera (Canon PowerShot SX110 IS). Pictures were captured within five minutes, four hours, and 10 minutes post application for DEET, CDM, and propoxur, respectively. DEET- and propoxur-treated insects were monitored for at least 1 hour post exposure to ensure the response was not slow acting. The original photographs were cropped and background shadows were enhanced to increase detail of the insect using Adobe Photoshop PS5 (Adobe Systems, San Jose, CA, USA). The color or brightness of the light organ was not manipulated in any way during post-processing of the image.

[9] = system: housefly larval central nervous system; assay: Neurophysiological recordings of CNS nerve discharge in housefly larvae; parameters: species or system Musca domestica; settings: for pEC50: Musca domestica
Description: Neurophysiological recordings were performed on the central and peripheral nervous systems of larval Musca domestica. Glass pipette electrodes were pulled from borosilicate glass capillaries on a P-1000 Flaming/Brown micropipette puller (Sutter Instrument, Novato CA, USA). For CNS recordings, it was first excised from the larvae and placed in a separate dish with physiological saline (200 µL) containing: 157 mM NaCl, 3 mM KCl, 2 mM CaCl2, and 4 mM HEPES, pH = 7.25. The CNS was manually transected posterior to the cerebral lobes to disrupt the blood-brain barrier and enhance chemical penetration. Any convenient peripheral nerve trunks were pulled into a recording suction electrode. Amplification and digitization of descending electrical activity originating from the CNS were converted on-line into a rate plot, expressed in Hz (MacLab analog to digital converter hardware and LabChart 7 software, ADInstruments, Colorado Springs, CO, USA). […] After a baseline was established, the CNS preparation was directly exposed to test compound by adding 200 µL of solution to the bath containing 200 µL of saline. The final concentration of solvent in the bath was 0.1% DMSO. Each concentration was recorded for 3–5 min prior to the addition of the next drug concentration. […] Each drug concentration was replicated 3-5 times.

[10] = system: octopamine receptors of Sf21 cells; assay: Calcium fluorescence assay in Sf21 cells; type: cell-based
Description: The Sf21 insect cell line was obtained from a commercial supplier (Invitrogen, Carlsbad, CA, USA) and maintained in log phase culture in Trichoplusia ni Medium-Formulation Hink (TNM-FH) from Sigma-Aldrich (St. Louis, MO, USA), supplemented with 10% fetal bovine serum and 100 U/ml penicillin and streptomycin (Sigma-Aldrich). Cells were cultured in a non-humidified environment and maintained at 27°C. Sf21 cells were passaged every 3–5 days according to manufacturer's instructions, and maintained for about 30 passes before being replaced by fresh cells.
Sf21 cells were plated into 96-well black-wall, clear bottom plates 24 h before calcium fluorescence assay. […] The octopamine receptor antagonist phentolamine (100 µM) was co-incubated with cells for 1 h before drug challenge. Phentolamine, octopamine, and DEET were dissolved in water, while propoxur was dissolved in 100% DMSO to make a stock solution, and in the assay, DMSO was kept to 0.1%. The experiment was repeated in triplicate with different plates of cells to obtain means and SEMs for each experimental condition.

[11] = mean, n = 3, read-out: IC50 (95% CI)

## Cc1ccccc1 [Toluene, toluene]
[1]
  pIC50: < 2.00
[2]
  pIC50: < 2.00
[3]
  pIC50: < 2.00
[4]
  pEC50: 3.00
acetylcholinesterase
  AChE inhibition in words: inactive
[5]
  pIC50: < 2.00
[6]
  pIC50: < 2.00
[7]
  pIC50: < 2.00
Rat Nav 1.4 channel
  concentration blocking channels: 3 mM
[8]
  effect on evoked EPSP in words: excitatory

## CCN(CC)CC(=O)Nc1c(C)cccc1C [Lidocaine, lidocaine]
[1]
  pIC50: < 2.00
[3]
  pIC50: 2.31
[5]; [11]
  pIC50: < 2.00
[6]
  pIC50: 2.02
[7]; [11]
  pIC50: < 2.00
[8]
  effect on evoked EPSP in words: antagonist

## Cc1cc(Cl)ccc1N=CN(C)C [CDM, chlordimeform]
Firefly light organ; 1 µg topically on light organ
  lantern illumination: incomplete activation of the light organ
Firefly light organ; 5 µg
  duration of glow of the entire lantern: approximately four
Firefly light organ; 5 µg topically on light organ
  lantern illumination: bright, constant glow of the entire lantern

## Nc1ccncc1 [4-AP, 4-aminopyridine]
[9]
  increase of maximal firing frequency above control levels: 6 fold
[9]; Fig. 3D, firing declined at concentrations >1 mM, read-out: EC50, neuroexcitation
  pEC50: 4.89

## NCC(O)c1ccc(O)cc1 (centres unmarked) [Octopamine, octopamine]
[9]; Fig. 3B, read-out: excitatory EC50
  pEC50: 3.96
[10]; 100 µM, over control cells
  increase in calcium fluorescence: ca. 50%

## Cc1ccc(N(CC2=NCCN2)c2cccc(O)c2)cc1 [phentolamine]
[9]; 100 µM phentolamine, DEET up to 500 µM
  block of DEET-mediated neuroexcitation: completely blocked
[9]; 100 µM phentolamine, octopamine up to 3 mM
  block of octopamine-mediated neuroexcitation: completely blocked
[9]; 100 µM phentolamine, propoxur 1 µM, not statistically significant
  decline of maximal firing compared to propoxur alone: 21%
[9]; 100 µM phentolamine, propoxur below 1 µM
  effect on neuroexcitation by propoxur: no effect
[9]; phentolamine
  effect on 4-AP mediated neuroexcitation: no effect
[10]; 100 µM phentolamine pre-exposure 1 h
  effect on DEET- and octopamine-mediated activation of calcium fluorescence: abolished
